Reference: patent US20230099204A1, “PHARMACEUTICAL COMPOSITION FOR PREVENTION OR TREATMENT OF CANCER IN WHICH KRAS MUTATION AND ACTIVATED RON ARE PRESENT” (WELLMARKER BIO CO., LTD., priority 2020, published 2023)
Where a name gives a salt, the structure may show the parent alone.

Key:
SW480 = experiment: MTS assay, cytotoxicity on colorectal cancer cell line SW480; type: cell-based; conditions: Homo sapiens, RON Δ155, KRAS G12V, 72 hours
Experimental: (§1) MTS assay was performed to compare cytotoxicity of the compounds of Example 1, Example 2, Example 3, Example 4, Example 5, Example 6, and positive control 1 on a colorectal cancer cell line, and a cell death rate of the colorectal cancer cell line was analyzed to compare anticancer activity of the compounds.
(§2) The MTS assay was performed by seeding each colorectal cell line in a 96-well plate at 1,000 cells per well, and after 24 hours, performing treatment with the compounds of Examples 1 to 6 and positive control 1 at various concentrations (0.000001 μM to 10 μM) in 100 μL of 10% FBS-RPMI medium (WELGENE Inc.) per well. The cells were incubated for 72 hours. Then, 20 μL of MTS solution (Promega) was added thereto, and the cells were incubated for 2 hours. Then, the absorbance was measured at 490 nm. The IC50 values for the compounds of Examples 1 to 6 and positive control 1 were calculated using GraphPad Prism™ 5 to investigate cytotoxicity.

HCT8 = experiment: MTS assay, cytotoxicity on colorectal cancer cell line HCT8; type: cell-based; conditions: Homo sapiens, HCT-8, RON wt, KRAS G13D, 72 hours
Experimental: as §1, §2

DLD1 = experiment: MTS assay, cytotoxicity on colorectal cancer cell line DLD1; type: cell-based; conditions: Homo sapiens, DLD-1, RON wt, KRAS G13D, 72 hours
Experimental: as §1, §2

SNUC2A = experiment: MTS assay, cytotoxicity on colorectal cancer cell line SNUC2A; type: cell-based; conditions: RON mutation negative, KRAS G12D, 72 hours
Experimental: as §1, §2

HCT15 = experiment: MTS assay, cytotoxicity on colorectal cancer cell line HCT15; type: cell-based; conditions: Homo sapiens, HCT-15, RON Δ160, KRAS G13D, 72 hours
Experimental: as §1, §2

T84 [1] = experiment: MTS assay, cytotoxicity on colorectal cancer cell line T84; type: cell-based; conditions: Homo sapiens, RON Δ165, KRAS G13D, 72 hours
Experimental: as §1, §2

SW620 [2] = experiment: MTS assay, cytotoxicity on colorectal cancer cell line SW620; type: cell-based; conditions: Homo sapiens, SW-620, RON Δ155, KRAS G12V, 72 hours
Experimental: as §1, §2

[3] = tested on: colorectal cancer cell line; experiment: MTS assay, summary over the colorectal cancer cell lines; type: cell-based; conditions: summary in words of Table 1
Experimental: as §1, §2

[4] = tested on: HCT8 (KRAS G13D/pTyr-wtRON(+)); experiment: Cell line HCT8-transplanted mouse model; type: in vivo, BALB/c nude mice; conditions: 10 mg/kg, oral, once a day for 4 weeks
Experimental: 5-Week-old female BALB/c nude mice were purchased and acclimatized for 1 week. Then, human colorectal cancer patient-derived cell line SW620 (KRAS
G12V/mRON Δ155) at 5×10^6 cells/mouse was injected subcutaneously (100 μL) into the right dorsal side of the mice. The compound of Example 1 was orally administered when the tumor reached a size of about 100 mm^3. The drug was administered once a day for 4 weeks, and tumor size and mouse body weight were measured twice a week. After completion of the drug administration, the experimental animals were euthanized, and then the tumors were extracted and weighed for comparative analysis.
A portion of the extracted tumor tissue was fixed in 10% formalin and processed into a paraffin block. Then, the block was made into sections. Staining of the slide was performed through immunochemical staining. Another portion of the extracted tumor tissue was subjected to lysis, and then Western blotting was used to identify changes in expression of respective proteins.
The experiment was conducted in the same method as the procedure of Experimental Example 3, except that human colorectal cancer patient-derived cell line HCT8 (KRAS G13D/pTyr-wtRON(+)) was used in place of the human colorectal cancer patient-derived cell line SW620 (KRAS G12V/mRON Δ155), and the respective compounds of Example 1, positive control 1, and positive control 2 were administered.

T84 [5] = experiment: Cell death induction, trypan blue cell counting, T84; type: cell-based; conditions: T84 with a RON mutation; 1 μM; 48 hours; FIG. 1
Experimental: (§3) Based on the results above, to identify the cell death-inducing ability of the compounds of Example 1 and positive control 1, which are representative materials, preparation was performed by seeding respective colorectal cancer cell lines SNU-[…], HCT8, T84, and SW620 onto 60-mm plates at 3×10^5 cells, and then incubation was performed for 24 hours. Thereafter, treatment with each of Example 1 and positive control 1 was performed at 1μM and incubation was performed for 48 hours. After 48 hours, the cells and cell suspensions were collected by treatment with trypsin, resuspended in 1× PBS and stained using a trypan blue solution (Sigma, cat# T8154). The stained cells were counted using a hemocytometer. Cell counting was repeated, and the mean and the standard deviation were calculated.

SW620 [6] = experiment: Cell death induction, trypan blue cell counting, SW620; type: cell-based, human; conditions: 1 μM, 48 hours; for cell death rate: SW620 (KRAS G12V/mRON Δ155), FIG. 2
Experimental: as §3, with “48 hours. In addition, preparation was performed by seeding the cell line SW620 onto a 60-mm plate at 3×10^5 cells, and then incubation was performed for 24 hours. Thereafter, treatment with each of Example 1, positive control 1, positive control 2, and positive control 3 was performed at 1 μM. After 48” for “48 hours. After 48”

| Structure (SMILES) | IC50 (SW480) [nM] | IC50 (HCT8) [nM] | IC50 (DLD1) [nM] | IC50 (SNUC2A) [nM] | IC50 (HCT15) [nM] | IC50 (T84 [1]) [nM] | IC50 (SW620 [2]) [nM] | efficiency / response in MTS assay over the cell lines [3] | Tumor growth inhibition (TGI, %) [4] [%] | cell death induction efficacy (T84 [5]) | cell death rate (SW620 [6]) | cell death induction efficacy (SW620 [6]; SW620 with a RON mutation, FIG. 1) |
| --- | --- | --- | --- | --- | --- | --- | --- | --- | --- | --- | --- | --- |
| CCOc1ccn(-c2ccccc2)c(=O)c1C(=O)Nc1ccc(Oc2ccnc3cc(-c4ccc(CNCCOC)cn4)sc23)c(F)c1 [Example 2, 4-ethoxy-N-(3-fluoro-4-{[2-(5-{[(2-methoxyethyl)amino]methyl}pyridine-2-yl)thieno[3,2-b]pyridine-7-yl]oxy}phenyl)-2-oxo-1-phenyl-1,2-dihydropyridine-3-carboxamide hydrochloride] | 1250 | 260 | 210 | 4440 | 220 | 210 | 370 | – | – | – | – | – |
| CCOc1ccn(-c2ccccc2)c(=O)c1C(=O)Nc1ccc(Oc2ccnc3cc(-c4ccc(CN5CCN(C)CC5)cn4)sc23)c(F)c1 [Example 3, 4-ethoxy-N-{3-fluoro-4-[(2-{5-[(4-methylpiperazin-1-yl)methyl]pyridin-2-yl}thieno[3,2-b]pyridin-7-yl)oxy]phenyl}-2-oxo-1-phenyl-1,2-dihydropyridine-3-carboxamide hydrochloride] | 660 | 480 | 300 | 4600 | 390 | 220 | 260 | – | – | – | – | – |
| Cn1cnc(-c2cc3nccc(Oc4ccc(NC(=O)c5c6c(cn(-c7ccc(F)cc7)c5=O)CCO6)cc4F)c3s2)c1 [Example 4] | 670 | 1200 | 660 | 7530 | 1270 | 170 | > 10000 | high efficiency in the cell lines (HCT8 and DLD-1) | – | – | – | – |
| COc1cc2c(Oc3ccc(NC(=O)c4c5c(cn(-c6ccc(F)cc6)c4=O)CCO5)cc3F)ccnc2cc1OCCN1CCOCC1 [Example 5, N-(3-fluoro-4-((6-methoxy-7-(2-morpholinoethoxy)quinolin-4-yl)oxy)phenyl)-5-(4-fluorophenyl)-6-oxo-2,3,5,6-tetrahydrofuro[3,2-c]pyridine-7-carboxamide] | 110 | 780 | 230 | 3820 | 390 | 810 | 1000 | – | – | – | – | – |
| COc1cc2c(Oc3ccc(NC(=O)c4c5c(cn(-c6ccc(F)cc6)c4=O)CCO5)cc3F)ccnc2cc1OCCCN1CC(C#N)C1 [Example 6, N-(4-((7-(3-(3-cyanoazetidine-1-yl)propoxy)-6-methoxyquinoline-4-yl)oxy)-3-fluorophenyl)-5-(4-fluorophenyl)-6-oxo-2,3,5,6-tetrahydrofuro[3,2-c]pyridine-7-carboxamide] | 320 | 330 | 170 | 1320 | 140 | 200 | 110 | – | – | – | – | – |
| CCOc1ccn(-c2ccc(F)cc2)c(=O)c1C(=O)Nc1ccc(Oc2ccnc(N)c2Cl)c(F)c1 [Positive control 1, N-{4-[(2-amino-3-chloro-4-pyridinyl)oxy]-3-fluorophenyl}-4-ethoxy-1-(4-fluorophenyl)-2-oxo-1,2-dihydro-3-pyridinecarboxamide, reference compound] | 3540 | 7320 | 4720 | > 10000 | 3240 | 8400 | 5000 | high IC50 values in most cell lines | −7.5 ± 36.3 | little response | cell death was not induced | little response |
| C[C@@H](Oc1cc(-c2cnn(C3CCNCC3)c2)cnc1N)c1c(Cl)ccc(F)c1Cl [Positive control 2, reference compound] | – | – | – | – | – | – | – | – | 23.2 ± 7.8 | – | cell death was not induced | – |
| COc1cc2nccc(Oc3ccc(NC(=O)C4(C(=O)Nc5ccc(F)cc5)CC4)cc3)c2cc1OC [Positive control 3, N-(4-{[6,7-bis(methyloxy)quinoline-4-yl]oxy}phenyl)-N′-(4-fluorophenyl)cyclopropane-1,1-dicarboxamide] | – | – | – | – | – | – | – | – | – | – | cell death was not induced | – |
